Measured values taken from patent US20060111368A1, “Phosphodiesterase inhibitor” (Kyowa Hakko Kogyo Co., Ltd., priority 2002, published 2006).
Structures can show the parent of a compound that is named as a salt.

Key:
[1] = biological target: T1, PDE10A (Homo sapiens, UniProt Q9Y233); test: Activity of inhibiting PDE10A activity ([3H]cAMP decomposition inhibiting test); assay type: biochemical; details: substrate [3H]cAMP 0.2 μmol/L
T1 construct: made in house; host or cells: Sf9 insect cells (baculovirus, pVL1393)
T1 sequence (Q9Y233 340-1055): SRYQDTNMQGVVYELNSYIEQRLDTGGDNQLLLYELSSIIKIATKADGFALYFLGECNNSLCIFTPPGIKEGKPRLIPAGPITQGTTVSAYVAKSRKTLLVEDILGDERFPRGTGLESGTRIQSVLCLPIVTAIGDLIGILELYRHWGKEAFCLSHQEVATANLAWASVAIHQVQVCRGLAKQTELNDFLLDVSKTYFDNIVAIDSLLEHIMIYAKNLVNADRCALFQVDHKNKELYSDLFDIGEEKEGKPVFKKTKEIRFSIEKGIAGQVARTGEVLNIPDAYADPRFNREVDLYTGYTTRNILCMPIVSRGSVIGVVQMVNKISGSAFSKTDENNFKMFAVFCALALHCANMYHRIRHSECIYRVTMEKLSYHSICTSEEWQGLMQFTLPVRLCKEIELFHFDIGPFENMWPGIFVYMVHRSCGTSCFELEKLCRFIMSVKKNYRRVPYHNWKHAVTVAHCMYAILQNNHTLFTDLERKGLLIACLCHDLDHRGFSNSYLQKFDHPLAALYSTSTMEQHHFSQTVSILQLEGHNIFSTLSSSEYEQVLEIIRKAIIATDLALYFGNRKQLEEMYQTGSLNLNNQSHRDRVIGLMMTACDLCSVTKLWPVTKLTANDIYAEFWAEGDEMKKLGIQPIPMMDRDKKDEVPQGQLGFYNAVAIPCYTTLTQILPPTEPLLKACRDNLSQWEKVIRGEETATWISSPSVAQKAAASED
Description: Activity of Inhibiting PDE10A Activity (^3H]cAMP Decomposition Inhibiting Test)
PCR was performed using DNAs having base sequences described in SEQ ID NO. 1 and SEQ ID NO. 2 as primers and human kidney cDNA as a template to prepare a plasmid containing amplified fragments. The plasmid was cleaved with restriction endonucleases Pst I and Xba I to obtain a Pst I-Xba I fragment of 0.7 kb.
Meanwhile, Est clone (Cosmo Bio, Tokyo) of GenBank, ACCESSION WO 4835 was cleaved with restriction endonucleases Kpn I and Pst I to obtain a Kpn I-Pst I fragment of 1.5 kb.
The resulting Pst I-Xba I fragment of 0.7 kb and Kpn I-Pst I fragment of 1.5 kb were subcloned in a Kpn I-Xba I site of pBluescript II KS(−) (STRATAGENE, La Jolla, Calif., USA),to construct a plasmid having a cDNA fragment completely including a catalyst region of PDE10A. Subsequently, the plasmid was cleaved with restriction endonucleases Kpn I and Not I to obtain a Kpn I-Not I fragment of 2.2 kb.
The resulting Kpn I-Not I fragment of 2.2 kb and a linker having a BamH I-Kpn I cleavage surface prepared by synthetic DNA having base sequences described in SEQ ID NOS. 3 and 4 were subcloned in a BamH I-Not I site of pVL1393 (PharMingen, San Diego, Calif., USA) to obtain a plasmid for preparation of Baculovirus. The plasmid contains a DNA encoding a peptide in which methionine, FLAG tag and a peptide having a 64th to 779th amino acid sequence of PDE10A [GenBank, ACCESSION NP 006652: Gene, vol. 234, p. 109 (1999), J. Biol. Chem., vol. 274, p. 18438 (1999)] are bound in the order.
The above gene recombinational manipulation was performed according to the method described in Molecular Cloning, 2nd edition, Cold Spring Harbor Laboratory Press, New York (1989).
The expression of PDE10A was conducted according to the Baculovirus expression vector system manual (PharMingen) using insect cells. As insect cells, Sf9 cells (Asahi Technoglass, Tokyo) were used. Sf9 cells were infected with a supernatant (co-transfection sup) containing PDE10A expression virus prepared according to the manual, and cultured at 27° C. for 4 days. The cells were recovered, washed with a phosphate-buffered saline (PBS), and then suspended in an extraction solution [20 mmol/L Tris-acetate (pH 7.5), 2 mmol/L MgCl2, 1 mmol/L dithiothreitol, 1 mmol/L ethylenediaminetetraacetic acid (EDTA), 0.25 mol/L sucrose, 250 unit/mL aprotinin, 40 μg/mL phenylmethylsulfonyl fluoride, and 1 μg/mL pepstatin A]. The cells were disrupted in ice with the maximum output under conditions of 5 seconds and five times using an ultrasonic disruption machine (TOMY model UR-200R, TOMY, Tokyo). A soluble fraction was obtained by centrifugation under 10,000 rpm of the fraction at 4° C. for 30 minutes, and the resulting soluble fraction was used for measuring the PDE activity.
The PDE activity was measured according to the method described in Methods Enzymol., vol. 159, p. 457 (1988).
Using [^3H]cAMP as a substrate, an enzyme reaction was conducted in a reaction solution containing 300 μL of 50 mmol/L N,N-bis (2-hydroxyethyl)-2-aminoethanesulfonic acid (pH 7.2), 1 mmol/L MgCl2 and 0.1 mmol/L ethylene glycol-bis (β-aminoethyl ether)-N,N,N′,N′-tetraacetic acid: EGTA). The concentration of the substrate was 0.2 μmol/L. To 95 μL of an enzyme dilute solution were added 5 μL of a test compound (DMSO solution) and 200 μL of a substrate solution. The mixture was incubated at 30° C. for 20 minutes, and then HCl was added to stop the reaction. The reaction product (5′-AMP) was converted to adenosine using 5′-nucleotidase, and separated the unreacted product from the reactant by DEAE-Sephadex A-25 column (Amersham Pharmacia Biotech, Uppsala, Sweden). The elute was moved to scintillation vials, 6 mL of Ultima Gold (Packard Instrument, Meriden, Conn., USA) was added, and the radioactivity was measured for 2 minutes using a liquid scintillation counter (Beckman LS6500, Beckman, Tokyo),. […]

[2] = test system: MDA-MB-231 (human breast cancer cell); test: Cell growth inhibitory activity (MTT-type colorimetric assay); assay type: cell-based; details: MDA-MB-231, 72 h, 10 μmol/L, 3 days of culture
Description: Cell Growth Inhibitory Activity
Cell growth inhibitory activity of compound 12 was examined on MDA-MB-231 (human breast cancer cell: American Type Culture Collection) using an in-vitro cell growth assay [3-(4,5-dimethylthiazol-2-yl)-2,5-diphenyl tetrazolium bromide (MTT)]-type calorimetric assay [Leukemia, vol. 7, p. 1637, (1993)].
MDA-MB-231 (2.5×10^4 cells/mL, 270 μL) was inoculated on a 48-well plate, and cultured overnight. In the culture, Leibovitz's L-15 (Gibco) containing. 10% fetal calf serum (Hi-Clone), 0.05 units/mL of penicillin (Gibco) and 0.05 μg/mL of streptomycin (Gibco) was used as a culture medium. 30 μL of compound 12 dissolved in the same medium containing 0.1% dimethyl sulfoxide (DMSO; Wako Pure Chemical Industries) was added to each well. After 3 days of culture, 30 μL of MTT (Dojin Kagaku Kenkyusho, adjusted to a concentration of 5 mg/mL with PBS) was added to each well. After 4 hours of culture, 900 μL of DMSO was added to dissolve the cells. The cell solution was moved to a 96-well plate in amounts of 200 μL each, and fluorescence intensity OD590-630was measured with an automated microplate reader EL340 (Biotech Instruments). […] (medium containing 0.1% DMSO alone was added) and OD (blank) is fluorescence intensity (OD590-630) of the same medium containing 0.1% DMSO. […]

inhibition at 1 µM ([1]; Test compound concentration 1 μmol/L, read-out: [3H] cAMP decomposition inhibition rate (%)): 96%
IC50 ([1]; read-out: IC50 (concentration at which to inhibit [3H]cAMP decomposition by 50%)): 0.068 µM
SMILES: Cc1c(-c2ccc(-c3ccccc3CN3CCOCC3)cc2)nc2ccc(F)cc2c1CO [Compound 12, 6-Fluoro-4-hydroxymethyl-3-methyl-2-(2′-morpholinomethylbiphenyl-4-yl)quinoline dihydrochloride]
inhibition at 10 µM [2]: 39%
